According to US9708304B2, “Salt polymorph of thioxanthene-9-ylidene-1-methyl piperidine acid addition salts as antimigraine compounds” (BIOFRONTERA BIOSCIENCE GMBH, priority 2013, dated 2017):
Read-outs that look alike come from different tables or passages of the source.

Assay: Comparison of solubilities of sample Id 1 and Id 2 in three different solvents
Format: physicochemical
Method: It has also been confirmed that sample 2 has a higher solubility than the starting material. The starting HCl salt (sample Id 1) and the salt received from the low temperature evaporation (sample Id 2) were dissolved in 3 solvents with different capacities in solubility, namely methanol, 2-propanol and 96% ethanol (see Table 3 below). The solubility of sample Id 1 and sample Id 2 is shown in the rightmost column of Table 3 in mg/ml.

[1] = solvent 2-Propanol, hydrochloride
[2] = solvent Ethanol 96%, hydrochloride
[3] = solvent Methanol, hydrochloride

Increase in solubility in comparison to the starting material (sample Id 1) (2-propanol) | solubility (2-propanol, organic solvent or mixture, thermodynamic from solid, solvent 2-Propanol, read-out: Solubility) [mg/mL] | Increase in solubility in comparison to the starting material (sample Id 1) (96% ethanol) | Weight-% (dissolved salt in solution) [1] [%] | Weight-% (dissolved salt in solution) [2] [%] | solubility [2] [mg/mL] | Weight-% (dissolved salt in solution) [3] [%] | solubility [3] [mg/mL] | solubility (96% ethanol, organic solvent or mixture, thermodynamic from solid, solvent Ethanol 96%, read-out: Solubility) [mg/mL] | solubility (methanol, organic solvent or mixture, thermodynamic from solid, solvent Methanol, read-out: Solubility) [mg/mL] | solubility [1] [mg/mL] | SMILES | Solubility compared with starting material (methanol, 2-propanol and 96% ethanol)
about 25% | 5 | about 9% | 0.38 | 4.70 | 62 | 12.92 | 171 |  |  |  | CCOc1ccc2c(c1)Sc1cccc(OC)c1C2=C1CCN(C)CC1.Cl [Low. temp. evap. MeOH, 4-(6-ethoxy-1-methoxy-thioxanthene-9-ylidene)-1-methyl piperidine hydrochloride] | enhanced solubility in all three solvents tested
 |  |  | 0.27 | 4.56 |  | 12.50 |  | 57 | 156 | 4 | CCOc1ccc2c(c1)Sc1cccc(OC)c1C2=C1CCN(C)CC1.Cl [Starting Material, 4-(6-ethoxy-1-methoxy-thioxanthene-9-ylidene)-1-methyl piperidine hydrochloride] | 
